Where two headings read alike, the source gives them in different places.
Key:
TLR8 = target: T1, TLR8 (Homo sapiens, UniProt Q9NR97); test: In vitro human TLR8 binding reporter assay (HEK-Blue, NF-kB/AP1-inducible SEAP); assay type: cell-based; conditions: read-out: TLR8 Agonist EC50
T1 construct: human HEK-Blue cells co-expressing a TLR7 or TLR8 gene
T1 sequence (Q9NR97 27-1041): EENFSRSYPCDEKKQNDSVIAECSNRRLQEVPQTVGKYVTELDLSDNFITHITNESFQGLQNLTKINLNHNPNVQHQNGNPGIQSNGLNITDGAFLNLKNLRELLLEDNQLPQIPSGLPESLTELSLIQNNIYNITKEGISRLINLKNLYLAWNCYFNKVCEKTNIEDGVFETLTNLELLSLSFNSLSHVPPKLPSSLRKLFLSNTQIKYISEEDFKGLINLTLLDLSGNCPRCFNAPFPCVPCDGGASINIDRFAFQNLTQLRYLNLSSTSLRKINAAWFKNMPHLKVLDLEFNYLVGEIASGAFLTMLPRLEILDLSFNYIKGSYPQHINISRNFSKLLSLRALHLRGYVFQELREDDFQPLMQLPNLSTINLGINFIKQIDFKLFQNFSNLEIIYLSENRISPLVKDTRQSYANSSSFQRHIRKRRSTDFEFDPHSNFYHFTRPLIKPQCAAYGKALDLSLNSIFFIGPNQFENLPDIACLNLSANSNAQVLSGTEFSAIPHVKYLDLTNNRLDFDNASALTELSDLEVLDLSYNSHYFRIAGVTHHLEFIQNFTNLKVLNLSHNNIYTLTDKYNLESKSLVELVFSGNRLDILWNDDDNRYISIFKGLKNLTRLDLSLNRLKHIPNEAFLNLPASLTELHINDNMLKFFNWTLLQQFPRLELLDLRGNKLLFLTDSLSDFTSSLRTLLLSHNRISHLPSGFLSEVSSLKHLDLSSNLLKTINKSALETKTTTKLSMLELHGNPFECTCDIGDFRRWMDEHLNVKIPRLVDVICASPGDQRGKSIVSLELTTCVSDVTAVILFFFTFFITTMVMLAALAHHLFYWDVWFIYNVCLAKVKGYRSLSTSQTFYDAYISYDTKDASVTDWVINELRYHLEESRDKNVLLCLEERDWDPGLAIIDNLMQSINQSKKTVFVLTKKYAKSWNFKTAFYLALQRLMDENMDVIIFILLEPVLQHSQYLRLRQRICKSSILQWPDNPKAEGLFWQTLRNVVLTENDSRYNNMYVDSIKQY
Method: (§1) In Vitro Human TLR7 and TLR8 Binding Reporter Assays
(§2) Logarithmically-growing human HEK-Blue cells co-expressing a TLR7 or TLR8 gene and a NF-kB/AP1-inducible SEAP (secreted embryonic alkaline phosphatase; Invivogen, San Diego, CA) reporter gene are added to individual wells of a 384-well plate (15,000 cells per 20 μL per well) and maintained for 24 h at 37° C., 5% CO2. Test compounds or DMSO are distributed to separate wells the next day using acoustic liquid handling technology (100 nL per well) and cells are subsequently incubated for 18 h at 37° C., 5% CO2. Cellular SEAP production is measured using an Envision plate reader instrument thirty minutes after adding freshly-made Quanti-Blue reagent (prepared by following manufacturer instructions; Invivogen, San Diego, CA) to the HEK-Blue TLR Nf-kB-SEAP cell reactions. All EC50 values (half-maximal effective concentration) are determined using proprietary data analysis software. Normalized EC50 value=absolute value determined by setting 100% Ymax using a reference standard RLU (relative light unit) values from cells treated with 50 μM of the reference standard.

TLR7 = target: T2, TLR7 (Homo sapiens, UniProt Q9NYK1); test: In vitro human TLR7 binding reporter assay (HEK-Blue, NF-kB/AP1-inducible SEAP); assay type: cell-based; conditions: read-out: TLR7 Agonist EC50
T2 construct: human HEK-Blue cells co-expressing a TLR7 or TLR8 gene
T2 sequence (Q9NYK1 27-1049): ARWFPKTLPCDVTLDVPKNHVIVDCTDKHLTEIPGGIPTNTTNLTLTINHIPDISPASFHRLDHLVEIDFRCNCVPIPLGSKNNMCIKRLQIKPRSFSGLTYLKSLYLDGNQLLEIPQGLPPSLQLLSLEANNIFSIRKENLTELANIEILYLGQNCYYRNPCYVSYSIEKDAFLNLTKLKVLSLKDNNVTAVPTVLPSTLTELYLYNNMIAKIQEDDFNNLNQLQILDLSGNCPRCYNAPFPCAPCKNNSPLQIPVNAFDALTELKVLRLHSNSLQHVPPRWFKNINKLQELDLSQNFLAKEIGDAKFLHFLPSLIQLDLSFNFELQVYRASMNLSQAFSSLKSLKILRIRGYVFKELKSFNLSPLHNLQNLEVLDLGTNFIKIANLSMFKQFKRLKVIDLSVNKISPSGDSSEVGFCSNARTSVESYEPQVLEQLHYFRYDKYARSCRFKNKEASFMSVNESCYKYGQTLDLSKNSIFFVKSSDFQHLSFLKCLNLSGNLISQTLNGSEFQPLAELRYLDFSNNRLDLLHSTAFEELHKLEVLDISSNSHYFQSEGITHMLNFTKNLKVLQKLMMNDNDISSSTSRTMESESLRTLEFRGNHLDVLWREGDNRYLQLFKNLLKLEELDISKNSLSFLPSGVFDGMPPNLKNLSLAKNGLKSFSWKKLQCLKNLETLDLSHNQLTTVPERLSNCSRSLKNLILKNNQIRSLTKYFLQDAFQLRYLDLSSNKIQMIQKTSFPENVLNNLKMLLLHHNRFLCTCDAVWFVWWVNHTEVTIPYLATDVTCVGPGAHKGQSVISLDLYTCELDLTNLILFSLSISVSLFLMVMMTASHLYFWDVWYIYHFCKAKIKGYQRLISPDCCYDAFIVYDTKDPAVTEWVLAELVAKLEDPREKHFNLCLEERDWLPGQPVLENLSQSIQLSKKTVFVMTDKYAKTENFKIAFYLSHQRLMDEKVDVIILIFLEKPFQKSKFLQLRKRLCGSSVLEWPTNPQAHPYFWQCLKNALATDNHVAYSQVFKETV
Method: as §1, §2

THP-1 cells = test: Measurement of IL-1β production, hTRF protocol (second alternative procedure), THP-1 cells; assay type: cell-based, human; conditions: read-out: NLRP3 hILIB EC50
Method: Measurement of IL-1β Production—hTRF Protocol (Second Alternative Procedure)
Serial dilutions of compounds in DMSO were added to low volume 384 well plates at 100 nl/well using an ECHO 550 acoustic dispenser (Labcyte) to achieve final starting concentration of 10 μM in assay.
THP-1 cells in RPMI (Gibco, 11875) media with 10% FBS at a density of 1×10^6 cell/ml in a T175 flask were treated with a final concentration of phorbol 12-myristate 13-acetate (PMA) (Sigma, P1585) of 50 ng/ml overnight at 37° C. at 5% CO2 for differentiation. Cells were harvested the next day after rinsing well with dPBS using 0.5% trypsin. A cell solution was prepared of 1×10^6 cells/ml for 50,000 cells in 50 μl/well in RPMI media with 2% FBS. Cells were plated using a multichannel pipette onto the compound dilutions in Greiner, 384 well, black clear bottom tissue culture treated plates (781090). The plates were incubated in 37° C. incubator at 5% CO2 for 2 hours.
After the 2 hour incubation, the cell plates were spun in the centrifuge for 5 minutes at 1200 rpm. Using the Felix (CyBio), 8 μl of the supernatant was transferred to 384 well, low volume, white proxy plates. (Perkin Elmer, 6008230). A human IL1beta hTRF kit was used to analyze the supernatant (CISBIO, 62HIL1BPEG). The kit instructions were followed for preparing the IL1Beta standard curve and then the antibodies from the kit were diluted 1:40 rather than 1:20 as kit instructed. Once combined, the antibodies were added across the plates, 5 μl/well. The plates were sealed and incubated at 4° C. overnight. The plates were then read on the Perkin Elmer EnVision at 665/615 nm using the hTRF laser.

[1] = Homo sapiens, THP-1, IL-1β production, human
[2] = Homo sapiens, THP-1, IL-1β production, human cells

Row | Structure (SMILES) | EC50 (TLR8; activity range class) [µM] | EC50 (TLR7; activity range class) [µM] | EC50 (THP-1 cells; [1]) [µM] | EC50 (THP-1 cells; IL-1β production, human) [µM] | EC50 (TLR8; activity range) [µM] | EC50 (TLR7; activity range) [µM] | EC50 (THP-1 cells; [2]) [µM]
1 | Nc1nc2cc(-c3cc[nH]n3)ccc2c2cn(CCNC(=O)c3ccncc3)nc12 [Example 37] | > 100 | > 100 | 0.95 |  |  |  | 
2 | Cc1cccc(C(=O)NCCn2cc3c(n2)c(N)nc2cc(-c4cc[nH]n4)ccc23)n1 [Example 49] | 20 to 100 | > 100 | 0.61 |  |  |  | 
3 | Nc1nc2cc(-c3cc[nH]n3)ccc2c2nn(C3CCOC3)cc12 (single isomer, unassigned) [Example 238] | > 100 | > 100 |  | 0.72 |  |  | 
4 | CCOCCn1ncc2c(N)nc3cc(-c4cc[nH]n4)ccc3c21 [Example 223] | > 100 | > 100 | 0.45 |  |  |  | 
5 | Nc1nc2cc(-c3cc[nH]n3)ccc2c2cn(C[C@@H](O)CO)nc12 [Example 398] |  |  |  |  | > 100 | > 100 | 1.55
6 | Nc1nc2cc(-c3cc[nH]n3)ccc2c2cn(CCNC(=O)c3cc(F)ccn3)nc12 [Example 54] | > 100 | 20 to 100 | 0.19 |  |  |  | 
7 | Nc1nc2cc(-c3cc[nH]n3)ccc2c2c1cnn2CC(F)F [Example 225] | > 100 | > 100 | 0.2 |  |  |  | 
8 | CC(C)NCCn1cc2c(N)nc3cc(-c4ccn[nH]4)ccc3c2n1 [Example 275] | > 100 | > 100 | 1.73 |  |  |  | 
9 | Nc1nc2cc(-c3cc[nH]n3)ccc2c2cn(CCNC(=O)c3ccccn3)nc12 [Example 39] | 20 to 100 | > 100 | 0.25 |  |  |  | 
10 | Cc1nc(C(=O)NCCn2cc3c(n2)c(N)nc2cc(-c4cccs4)ccc23)co1 [Example 128, N-{2-[4-amino-7-(thiophen-2-yl)-2H-pyrazolo[3,4-c]quinolin-2-yl]ethyl}-2-methyl-1,3-oxazole-4-carboxamide] | > 100 | > 100 | 0.36 |  |  |  | 
11 | CCN(CC)CCNC(=O)C(C)n1cc2c(N)nc3cc(-c4ccn[nH]4)ccc3c2n1 (centres unmarked) [Example 573] |  |  |  |  | > 100 | > 100 | 6.59
12 | Nc1nc2cc(-c3cc[nH]n3)ccc2c2cn(CCNC(=O)Nc3ccccc3)nc12 [Example 115, 3-{2-[4-amino-7-(1H-pyrazol-3-yl)-2H-pyrazolo[3,4-c]quinolin-2-yl]ethyl}-1-phenylurea] | > 100 | > 100 | 7.76 |  |  |  | 
13 | Nc1nc2cc(-c3cc[nH]n3)ccc2c2cn(CCNC(=O)c3ccccc3F)nc12 [Example 74] | 20 to 100 | > 100 | 0.25 |  |  |  | 
14 | CC(C)(Cn1cc2c(N)nc3cc(-c4ccn[nH]4)ccc3c2n1)C(=O)NC1CCC1 [Example 598] |  |  |  |  | > 100 | > 100 | 1.98
15 | Nc1nc2cc(-c3cc[nH]n3)ccc2c2nn(C3CCCC3O)cc12 (single isomer, unassigned) [Example 314] | > 100 | > 100 | 0.49 |  |  |  | 
16 | Nc1nc2cc(-c3cc[nH]n3)ccc2c2nn(CCCN3CCOCC3)cc12 [Example 213] | > 100 | > 100 | 3.21 |  |  |  | 
17 | CCN(CC)CCCc1nc2c(N)nc3cc(-c4ccn[nH]4)ccc3c2s1 [Example 144, 2-[3-(diethylamino)propyl]-7-(1H-pyrazol-5-yl)-[1,3]thiazolo[4,5-c]quinolin-4-amine] | > 100 | > 100 | 0.66 |  |  |  | 
18 | Nc1nc2cc(-c3cc[nH]n3)ccc2c2nn(CCNC(=O)c3ccccc3)cc12 [Example 200] | > 100 | > 100 | 0.57 |  |  |  | 
19 | CCNC(=O)Cn1cc2c(n1)c(N)nc1cc(-c3cc[nH]n3)ccc12 [Example 529] |  |  |  |  | > 100 | > 100 | 0.87
20 | Cc1cc(C)n(CCn2cc3c(n2)c(N)nc2cc(-c4cc[nH]n4)ccc23)n1 [Example 166] | > 100 | > 100 | 0.31 |  |  |  | 
21 | Nc1nc2cc(-c3ccn[nH]3)ccc2c2oc(CCCOCc3ccccc3)nc12 [Example 146, 2-[3-(benzyloxy)propyl]-7-(1H-pyrazol-3-yl)-[1,3]oxazolo[4,5-c]quinolin-4-amine] |  |  | 7.94 |  |  |  | 
22 | Nc1nc2cc(-n3cccn3)ccc2c2cn(CCNC(=O)c3ccc(F)cn3)nc12 [Example 184] |  | > 100 | 0.1 |  |  |  | 
23 | Nc1nc2cc(-c3cc[nH]n3)ccc2c2cc(CCCO)oc12 [Example 148, 3-[4-amino-7-(1H-pyrazol-3-yl)furo[2,3-c]quinolin-2-yl]propan-1-ol] |  |  | 2.03 |  |  |  | 
24 | NCCc1cc2c(N)nc3cc(-c4ccn[nH]4)ccc3c2[nH]1 [Example 152, 2-(2-aminoethyl)-7-(1H-pyrazol-5-yl)-1H-pyrrolo[3,2-c]quinolin-4-amine] |  |  | 3.79 |  |  |  | 

Reference: patent publication US12037344B2, “NLRP3 modulators” (INNATE TUMOR IMMUNITY, INC., priority 2018, dated 2024)
